From ChEMBL document CHEMBL5506069, “A Unique Hybridization Route to Access Hydrazylnaphthalimidols as Novel Structural Scaffolds of Multitargeting Broad-Spectrum Antifungal Candidates” (J Med Chem, 2024)
Converted amounts (≈) assume the structure as drawn. The source made the active and inactive calls. The calls are words filed in the database; no cut-off is given here.

Experiments:
Candida albicans [1] = experiment: Antifungal activity against Candida albicans ATCC 90023 assessed as inhibition of fungal growth incubated for 24 hrs by CLSI based microbroth dilution method; type: functional
Candida albicans [2] = experiment: Antifungal activity against Candida albicans assessed as reduction in LDH activity by measuring fluorescence intensity at 8 times MIC measured for 6 hrs by alamar blue staining based analysis; type: functional; set-up: scale not given: the % may be the effect or the level left
Candida parapsilosis = experiment: Antifungal activity against Candida parapsilosis ATCC 22019 assessed as inhibition of fungal growth incubated for 24 hrs by CLSI based microbroth dilution method; type: functional; details: Lodderomyces parapsilosis
Candida albicans [3] = experiment: Antibiofilm activity against Candida albicans assessed as inhibition of biofilm formation at 0.5 to 8 microg/ml measured for 24 hrs by crystal violet staining based; type: functional; details: dose 0.5-8 µg/ml, at 0.5 to 8 µg/mL
L02 = experiment: Cytotoxicity against human L02 cells assessed as effect on cell growth incubated for 24 to 48 hrs by MTT assay; type: toxicity, cell-based; details: time 24-48 hrs
Calf thymus DNA [4] = experiment: Binding affinity to calf thymus DNA assessed as DNA-compound complex formation by measuring hyperchromism upto 7 mM by UV-Vis absorption spectra analysis; type: nucleic-acid assay; details: Bos taurus
Candida albicans [5] = experiment: Induction of morphological changes in Candida albicans assessed as deformation of cell shape at 2 times MIC measured after 6 hrs by SEM analysis; type: functional, organism-based
Candida tropicalis = experiment: Antifungal activity against Candida tropicalis assessed as inhibition of fungal growth incubated for 24 hrs by CLSI based microbroth dilution method; type: functional
Calf thymus DNA [6] = experiment: Binding affinity to calf thymus DNA assessed as change in red shift by measuring hypochromism upto 7 mM by UV-Vis absorption spectra analysis; type: nucleic-acid assay; details: Bos taurus
Candida albicans [7] = experiment: Antioxidant activity in Candida albicans assessed as decrease in GSH content at 1 times MIC measured at 30 mins by ellman method; type: functional; set-up: scale not given: the % may be the effect or the level left; details: 0.5 h
Erythrocyte [8] = experiment: Hemolytic activity in RBC (unknown origin) assessed as appearance of smooth surface at 128 times MIC measured for 6 hrs by microscopic analysis; type: toxicity, cell-based
Aspergillus fumigatus = experiment: Antifungal activity against Aspergillus fumigatus assessed as inhibition of fungal growth incubated for 24 hrs by CLSI based microbroth dilution method; type: functional
Candida albicans [9] = experiment: Antifungal activity against Candida albicans assessed as inhibition of fungal growth incubated for 24 hrs by CLSI based microbroth dilution method; type: functional
Candida albicans [10] = experiment: Antifungal activity against Candida albicans measured after at 14 passages; type: functional, organism-based
Calf thymus DNA [11] = experiment: Induction of DNA cleavage in calf thymus DNA at 0.5 mM in presence of Cu2+ by agarose gel electrophoresis analysis; type: nucleic-acid assay; details: Bos taurus
Candida albicans [12] = experiment: Induction of morphological changes in Candida albicans assessed as appearance of oval shape by SEM analysis; type: functional, organism-based
Cell membrane [13] = experiment: Induction of cell membrane damage in Candida albicans assessed as increase in fluorescent intensity at 0.5 to 8 times MIC measured for 6 hrs by PI staining based spectrofluorimeter analysis; type: subcellular
Candida albicans [14] = experiment: Induction of intracellular ROS production in Candida albicans assessed as increase in green fluorescence intensity at 4 times MIC incubated for 6 hrs by fluorescence microscopic analysis; type: functional, organism-based
Candida albicans [15] = experiment: Induction of morphological changes in Candida albicans assessed as appearance of dented surface at 2 times MIC measured after 6 hrs by SEM analysis; type: functional, organism-based
[16] = Hemolytic activity in RBC (unknown origin) assessed as hemolysis rate 128 times MIC measured for 6 hrs by double dilution method; type: toxicity, cell-based, Erythrocyte; details: red blood cells (erythrocytes), read-out: Activity
Candida albicans [17] = experiment: Induction of morphological changes in Candida albicans assessed as appearance of regular continuous surface by SEM analysis; type: functional, organism-based
Calf thymus DNA [18] = experiment: Induction of DNA cleavage in calf thymus DNA at 0.05 to 0.5 mM in presence of Cu2+ by agarose gel electrophoresis analysis; type: nucleic-acid assay; details: Bos taurus; dose 0.05-0.5 mM
Candida albicans [19] = experiment: Induction of morphological changes in Candida albicans assessed as appearance of atrophied surface at 2 times MIC measured after 6 hrs by SEM analysis; type: functional, organism-based
Candida albicans [20] = experiment: Antibiofilm activity against Candida albicans assessed as reduction in residual biomass measured for 24 hrs by crystal violet staining based; type: functional, organism-based; details: dose <= 8.0 µg/ml
Calf thymus DNA [21] = experiment: Induction of DNA cleavage in calf thymus DNA at 0.05 to 0.5 mM in presence of Zn2+ by agarose gel electrophoresis analysis; type: nucleic-acid assay; details: Bos taurus; dose 0.05-0.5 mM
Candida albicans [22] = experiment: Antifungal activity against Candida albicans at 4 times MIC measured within 10 hrs by time kill assay; type: functional, organism-based
Candida albicans [23] = experiment: Induction of intracellular ROS production in Candida albicans assessed as increase in fluorescence intensity incubated for 6 hrs by DCFH-DA staining based analysis; type: functional, organism-based
Candida albicans [24] = experiment: Antifungal activity against Candida albicans assessed as reduction in metabolic activity by measuring fluorescence intensity measured for 6 hrs by alamar blue staining based analysis; type: functional, organism-based
Candida albicans [25] = experiment: Antioxidant activity in Candida albicans assessed as decrease in GSH content at 2 times MIC measured at 30 mins by ellman method; type: functional; set-up: scale not given: the % may be the effect or the level left; details: 0.5 h
Candida albicans [26] = experiment: […] in Candida albicans assessed as decrease in pink fluorescence by resazurin staining based analysis; type: functional, organism-based
Candida albicans [27] = experiment: Induction of intracellular ROS production in Candida albicans assessed as fold increase in fluorescence intensity at 1 times MIC incubated for 6 hrs by DCFH-DA staining based analysis; type: functional
Calf thymus DNA [28] = experiment: Induction of DNA cleavage in calf thymus DNA assessed as change in DNA band formation at 0.05 to 0.5 mM by agarose gel electrophoresis analysis; type: nucleic-acid assay; details: Bos taurus; dose 0.05-0.5 mM
Calf thymus DNA [29] = experiment: Induction of DNA cleavage in calf thymus DNA at 0.5 mM in presence of Zn2+ by agarose gel electrophoresis analysis; type: nucleic-acid assay; details: Bos taurus
Erythrocyte [30] = experiment: Hemolytic activity in RBC (unknown origin) assessed as appearance of round surface at 128 times MIC measured for 6 hrs by microscopic analysis; type: toxicity, cell-based
Albumin [31] = molecular target: T1, Albumin (Homo sapiens, UniProt P02768); experiment: Binding affinity to human serum albumin assessed as Stem-Volmer quenching constant at 310K at pH 7.4 by fluorescence based analysis
Candida albicans [32] = experiment: Antifungal activity against Candida albicans assessed as reduction in LDH activity by measuring fluorescence intensity measured for 6 hrs by alamar blue staining based analysis; type: functional, organism-based
Albumin [33] = molecular target: T1, Albumin; experiment: Binding affinity to human serum albumin assessed as Stem-Volmer quenching constant at 286K at pH 7.4 by fluorescence based analysis
Cell membrane [34] = experiment: Induction of cell membrane damage in Candida albicans assessed as increase in red fluorescent intensity at 4 to 8 times MIC measured for 6 hrs by PI staining based spectrofluorimeter analysis
Candida albicans [35] = experiment: Antifungal activity against Candida albicans assessed as reduction in metabolic activity by measuring fluorescence intensity at 0.5 to 8 times MIC measured for 6 hrs by alamar blue staining based analysis; type: functional, organism-based
Cell membrane [36] = experiment: Induction of cytoplasmic membrane depolarization in Candida albicans assessed as increase in fluorescence intensity at 4 times MIC measured for 30 mins by DiSC3-5 dye based fluorescence method; type: cell membranes
Calf thymus DNA [37] = experiment: Binding affinity to calf thymus DNA assessed as binding constant by UV-Vis absorption spectra analysis; type: nucleic-acid assay; details: Bos taurus
Candida albicans [38] = experiment: Antioxidant activity in Candida albicans assessed as decrease in GSH content measured at 5 mins by ellman method; type: functional; set-up: scale not given: the % may be the effect or the level left
Candida albicans [39] = experiment: Induction of intracellular ROS production in Candida albicans assessed as fold increase in fluorescence intensity at 4 to 128 times MIC incubated for 6 hrs by DCFH-DA staining based analysis; type: functional, organism-based
Calf thymus DNA [40] = experiment: Binding affinity to calf thymus DNA assessed as decrease in fluorescence intensity by acridine orange dye based by UV-Vis absorption spectra analysis; type: nucleic-acid assay; details: Bos taurus
Candida albicans [41] = experiment: Potency index, ratio of fluconazole MIC to test compound MIC for antifungal activity against Candida albicans assessed as inhibition of fungal growth incubated for 24 hrs by CLSI based microbroth dilution method; type: functional
Albumin [42] = molecular target: T1, Albumin; experiment: Binding affinity to human serum albumin assessed as Stem-Volmer quenching constant at 298K at pH 7.4 by fluorescence based analysis
Cell membrane [43] = experiment: Induction of cell membrane potential loss in Candida albicans assessed as change in fluorescence intensity at 4 times MIC measured for 30 mins by DiSC3-5 dye based fluorescence method; type: subcellular

T1 sequence (P02768 whole entry): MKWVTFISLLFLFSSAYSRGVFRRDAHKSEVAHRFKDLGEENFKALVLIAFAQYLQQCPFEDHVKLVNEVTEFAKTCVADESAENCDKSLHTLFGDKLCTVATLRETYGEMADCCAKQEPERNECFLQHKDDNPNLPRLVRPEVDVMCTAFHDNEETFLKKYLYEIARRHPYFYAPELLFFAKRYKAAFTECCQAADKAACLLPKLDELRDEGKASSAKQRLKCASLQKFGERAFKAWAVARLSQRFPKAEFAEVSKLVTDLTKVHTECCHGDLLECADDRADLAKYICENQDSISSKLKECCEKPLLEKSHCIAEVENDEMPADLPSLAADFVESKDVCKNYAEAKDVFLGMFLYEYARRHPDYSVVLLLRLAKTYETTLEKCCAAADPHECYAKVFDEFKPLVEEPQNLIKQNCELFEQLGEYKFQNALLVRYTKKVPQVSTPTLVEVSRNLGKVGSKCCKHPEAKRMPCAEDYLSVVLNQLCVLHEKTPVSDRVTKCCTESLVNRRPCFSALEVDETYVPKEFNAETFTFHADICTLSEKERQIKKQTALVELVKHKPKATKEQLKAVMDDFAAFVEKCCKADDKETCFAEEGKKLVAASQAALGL

For `O=C1c2cccc3c(N/N=C/c4ccc([N+](=O)[O-])o4)ccc(c23)C(=O)N1CCO`, the MIC (Candida albicans [1]) was 2 µM (≈ 0.789 µg/mL), the Activity (Candida albicans [2]) was <55% and the MIC (Candida parapsilosis) was 4 µM (≈ 1.58 µg/mL). The “inhibition (INH)” value (Candida albicans [3]) was 22%, the Activity (L02) was “Non-Toxic” and the Activity (Calf thymus DNA [4]) was “Active”. For the same molecule, the Activity (Candida albicans [5]) was “Active”, the MIC (Candida tropicalis) was 2 µM (≈ 0.789 µg/mL) and the Activity (Calf thymus DNA [6]) was “Active”. For the same molecule, the Activity (Candida albicans [7]) was 50%, the Activity (Erythrocyte [8]) was “Non-Toxic” and the MIC (Aspergillus fumigatus) was 4 µM (≈ 1.58 µg/mL). The MIC (Candida albicans [9]) was 1 µM (≈ 0.394 µg/mL), the Activity (Candida albicans [10]) was “Active” and the Activity (Calf thymus DNA [11]) was “inactive”. For the same molecule, the Activity (Candida albicans [12]) was “Active”, the Activity (Cell membrane [13]) was “Active” and the Activity (Candida albicans [14]) was “Active”. For the same molecule, the Activity (Candida albicans [15]) was “Active”, the hemolysis at 6 h, 128 times MIC [16] was < 5% and the Activity (Candida albicans [17]) was “Active”. For the same molecule, the Activity (Calf thymus DNA [18]) was “inactive”, the Activity (Candida albicans [19]) was “Active” and the Activity (Candida albicans [20]) was “Dose-Dependent Effect”. For the same molecule, the Activity (Calf thymus DNA [21]) was “inactive”, the Activity (Candida albicans [22]) was “Active” and the Activity (Candida albicans [23]) was “Dose-Dependent Effect”. The Activity (Candida albicans [24]) was “Dose-Dependent Effect”, the Activity (Candida albicans [25]) was 40% and the Activity (Candida albicans [26]) was “Dose-Dependent Effect”. The “fold change (FC)” value (Candida albicans [27]) was 2.5, the Activity (Calf thymus DNA [28]) was “inactive” and the Activity (Calf thymus DNA [29]) was “inactive”. For the same molecule, the Activity (Erythrocyte [30]) was “Non-Toxic”, the KSV (Albumin [31]) was 8.82 10^4L/mol and the Activity (Candida albicans [32]) was “Dose-Dependent Effect”. The KSV (Albumin [33]) was 12.6 10^4L/mol, the Activity (Cell membrane [34]) was “Active” and the Activity (Candida albicans [35]) was “Active”. The Activity (Cell membrane [36]) was “inactive”, the K (Calf thymus DNA [37]) was 2.4 10^4L/mol and the Activity (Candida albicans [38]) was 70%. The Activity (Candida albicans [39]) was “Active”, the Activity (Calf thymus DNA [40]) was “Active” and the Ratio (Candida albicans [41]) was 13. For the same molecule, the KSV (Albumin [42]) was 9.34 10^4L/mol and the Activity (Cell membrane [43]) was “inactive”.
